These results are taken from US20260028354A1, “TETRAHYDRONAPHTHALENE DERIVATIVES AS ESTROGEN RECEPTOR DEGRADERS” (REGENT OF THE UNIVERSITY OF MICHIGAN, priority 2022, published 2026).

The test is described as follows: Western blot analysis for "B" compounds. To be noted: read-out: Traditional Western Degradation Potency (DC50). Type of test: cell-based. The method, boiled down: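 Compound-treated cells lysed in RIPA buffer with protease inhibitors; equal protein (BCA) run on 10% SDS-PAGE, transferred to PVDF and probed with target antibodies. Band intensities quantified by densitometry and normalized to GAPDH.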
A general note: A western blot detects proteins with antibodies after separation by electrophoresis.

With `O=C1CCC(N2C(=O)c3cc4c(cc3C2=O)CN(CC(=O)N2CC3(CCN(c5ccc([C@@H]6c7ccc(O)cc7CC[C@@H]6c6ccccc6)cc5)CC3)C2)CCC4)C(=O)N1` (mixture of isomers) [Compound B261, 2-(2,6-dioxopiperidin-3-yl)-6-(2-(7-(4-((1R,2S)-6-hydroxy-2-phenyl-1,2,3,4-tetrahydronaphthalen-1-yl)phenyl)-2,7-diazaspiro[3.5]nonan-2-yl)-2-oxoethyl)-6,7,8,9-tetrahydroazepino[3,4-f]isoindole-1,3(2H,5H)-dione], the 50% degradation concentration (DC50) (as a rule, the midpoint of the concentration-degradation curve) was greater than 100 nM. The result for `O=C1CCC(N2C(=O)c3cc4c(cc3C2=O)CN(C2CCN(C(=O)C3CCN(c5ccc([C@@H]6c7ccc(O)cc7CC[C@@H]6c6ccccc6)cc5)CC3)CC2)C4)C(=O)N1` (stereo partly drawn) [Compound B7, 2-(2,6-dioxopiperidin-3-yl)-6-(1-(1-(4-((1R,2S)-6-hydroxy-2-phenyl-1,2,3,4-tetrahydronaphthalen-1-yl)phenyl)piperidine-4-carbonyl)piperidin-4-yl)-6,7-dihydropyrrolo[3,4-f]isoindole-1,3(2H,5H)-dione] reads less than 10 nM; that for `O=C1CCC(N2C(=O)c3cc4c(cc3C2=O)CN(C(=O)c2ccc(CC(=O)N3CCCC(Oc5ccc([C@@H]6c7ccc(O)cc7CC[C@@H]6c6ccccc6)cc5)C3)cc2)C4)C(=O)N1` (stereo partly drawn) [Compound B16, 2-(2,6-dioxopiperidin-3-yl)-6-(4-(2-(3-(4-((1R,2S)-6-hydroxy-2-phenyl-1,2,3,4-tetrahydronaphthalen-1-yl)phenoxy)piperidin-1-yl)-2-oxoethyl)benzoyl)-6,7-dihydropyrrolo[3,4-f]isoindole-1,3(2H,5H)-dione], 10 to 100 nM; that for `C[C@H]1CC2(CCN(CC(=O)N3Cc4cc5c(cc4C3)C(=O)N(C3CCC(=O)NC3=O)C5=O)CC2)CN1c1ccc([C@@H]2c3ccc(O)cc3CC[C@@H]2c2ccccc2)cc1` (stereo partly drawn) [Compound B25, 2-(2,6-dioxopiperidin-3-yl)-6-(2-((S)-2-(4-((1R,2S)-6-hydroxy-2-phenyl-1,2,3,4-tetrahydronaphthalen-1-yl)phenyl)-3-methyl-2,8-diazaspiro[4.5]decan-8-yl)acetyl)-6,7-dihydropyrrolo[3,4-f]isoindole-1,3(2H,5H)-dione], greater than 100 nM. As for `C[C@@H]1CC2(CCN(c3ccc([C@@H]4c5ccc(O)cc5CC[C@@H]4c4ccc(F)cc4)cc3)CC2)CN1CC(=O)N1Cc2cc3c(cc2C1)C(=O)N(C1CCC(=O)NC1=O)C3=O` (stereo partly drawn) [Compound B27, 2-(2,6-dioxopiperidin-3-yl)-6-(2-((R)-8-(4-((1R,2S)-2-(4-fluorophenyl)-6-hydroxy-1,2,3,4-tetrahydronaphthalen-1-yl)phenyl)-3-methyl-2,8-diazaspiro[4.5]decan-2-yl)acetyl)-6,7-dihydropyrrolo[3,4-f]isoindole-1,3(2H,5H)-dione], the figure is greater than 100 nM; as for `O=C1CCC(N2C(=O)c3cc4c(cc3C2=O)CN(CC(=O)N2CCC[C@H](Oc3ccc([C@@H]5c6ccc(O)cc6CC[C@@H]5c5ccc(F)cc5)cc3)C2)C4)C(=O)N1` (stereo partly drawn) [Compound B36, 2-(2,6-dioxopiperidin-3-yl)-6-(2-((S)-3-(4-((1R,2S)-2-(4-fluorophenyl)-6-hydroxy-1,2,3,4-tetrahydronaphthalen-1-yl)phenoxy)piperidin-1-yl)-2-oxoethyl)-6,7-dihydropyrrolo[3,4-f]isoindole-1,3(2H,5H)-dione], greater than 100 nM.

Consider `O=C1CCC(N2C(=O)c3cc4c(cc3C2=O)CN(CC2CN(C(=O)C3CN(c5ccc([C@@H]6c7ccc(O)cc7CC[C@@H]6c6ccccc6)cc5)C3)C2)C4)C(=O)N1` (stereo partly drawn) [Compound B37, 2-(2,6-dioxopiperidin-3-yl)-6-((1-(1-(4-((1R,2S)-6-hydroxy-2-phenyl-1,2,3,4-tetrahydronaphthalen-1-yl)phenyl)azetidine-3-carbonyl)azetidin-3-yl)methyl)-6,7-dihydropyrrolo[3,4-f]isoindole-1,3(2H,5H)-dione], for which the DC50 was greater than 100 nM.

In the case of `O=C1CCC(N2C(=O)c3cc4c(cc3C2=O)CN(C(=O)CN2CCC[C@H](Oc3ccc([C@@H]5c6ccc(O)cc6CC[C@@H]5c5ccc(F)cc5)cc3)C2)C4)C(=O)N1` (stereo partly drawn) [Compound B38, 2-(2,6-dioxopiperidin-3-yl)-6-(2-((S)-3-(4-((1R,2S)-2-(4-fluorophenyl)-6-hydroxy-1,2,3,4-tetrahydronaphthalen-1-yl)phenoxy)piperidin-1-yl)acetyl)-6,7-dihydropyrrolo[3,4-f]isoindole-1,3(2H,5H)-dione], the DC50 was greater than 100 nM. `O=C1CCC(N2C(=O)c3cc4c(cc3C2=O)CCN(CC(=O)N2CCC3(CC2)CCN(c2ccc([C@@H]5c6ccc(O)cc6CC[C@@H]5c5ccccc5)cc2)CC3)CC4)C(=O)N1` (stereo partly drawn) [Compound B39, 2-(2,6-dioxopiperidin-3-yl)-7-(2-(9-(4-((1R,2S)-6-hydroxy-2-phenyl-1,2,3,4-tetrahydronaphthalen-1-yl)phenyl)-3,9-diazaspiro[5.5]undecan-3-yl)-2-oxoethyl)-6,7,8,9-tetrahydroazepino[4,5-f]isoindole-1,3(2H,5H)-dione]: the DC50 is greater than 100 nM. Turning to `O=C1CCC(N2C(=O)c3cc4c(cc3C2=O)CCN(C(=O)CN2CCC3(CC2)CCN(c2ccc([C@@H]5c6ccc(O)cc6CC[C@@H]5c5ccccc5)cc2)CC3)CC4)C(=O)N1` (stereo partly drawn) [Compound B40, 2-(2,6-dioxopiperidin-3-yl)-7-(2-(9-(4-((1R,2S)-6-hydroxy-2-phenyl-1,2,3,4-tetrahydronaphthalen-1-yl)phenyl)-3,9-diazaspiro[5.5]undecan-3-yl)acetyl)-6,7,8,9-tetrahydroazepino[4,5-f]isoindole-1,3(2H,5H)-dione], the DC50 was greater than 100 nM. As for `O=C1CCC(N2C(=O)c3cc4c(cc3C2=O)CCN(CC(=O)N2CC3(CCN(c5ccc([C@@H]6c7ccc(O)cc7CC[C@@H]6c6ccccc6)cc5)CC3)C2)CC4)C(=O)N1` (stereo partly drawn) [Compound B41, 2-(2,6-dioxopiperidin-3-yl)-7-(2-(7-(4-((1R,2S)-6-hydroxy-2-phenyl-1,2,3,4-tetrahydronaphthalen-1-yl)phenyl)-2,7-diazaspiro[3.5]nonan-2-yl)-2-oxoethyl)-6,7,8,9-tetrahydroazepino[4,5-f]isoindole-1,3(2H,5H)-dione], the figure is greater than 100 nM; as for `O=C1CCC(N2C(=O)c3cc4c(cc3C2=O)CCN(C(=O)CN2CC3(CCN(c5ccc([C@@H]6c7ccc(O)cc7CC[C@@H]6c6ccccc6)cc5)CC3)C2)CC4)C(=O)N1` (stereo partly drawn) [Compound B42, 2-(2,6-dioxopiperidin-3-yl)-7-(2-(7-(4-((1R,2S)-6-hydroxy-2-phenyl-1,2,3,4-tetrahydronaphthalen-1-yl)phenyl)-2,7-diazaspiro[3.5]nonan-2-yl)acetyl)-6,7,8,9-tetrahydroazepino[4,5-f]isoindole-1,3(2H,5H)-dione], greater than 100 nM. As for `O=C1CCC(N2C(=O)c3cc4c(cc3C2=O)CCN(CC(=O)N2CC3(CCN(c5ccc([C@@H]6c7ccc(O)cc7CC[C@@H]6c6ccc(F)cc6)cc5)CC3)C2)CC4)C(=O)N1` (stereo partly drawn) [Compound B53, 2-(2,6-dioxopiperidin-3-yl)-7-(2-(7-(4-((1R,2S)-2-(4-fluorophenyl)-6-hydroxy-1,2,3,4-tetrahydronaphthalen-1-yl)phenyl)-2,7-diazaspiro[3.5]nonan-2-yl)-2-oxoethyl)-6,7,8,9-tetrahydroazepino[4,5-f]isoindole-1,3(2H,5H)-dione], the DC50 was greater than 100 nM.

As for `O=C1CCC(N2C(=O)c3cc4c(cc3C2=O)CN(CC(=O)N2CCC3(CC2)CCN(c2ccc([C@@H]5c6ccc(O)cc6CC[C@@H]5c5ccc(F)cc5)cn2)CC3)C4)C(=O)N1` (stereo partly drawn) [Compound B54, 2-(2,6-dioxopiperidin-3-yl)-6-(2-(9-(5-((1S,2S)-2-(4-fluorophenyl)-6-hydroxy-1,2,3,4-tetrahydronaphthalen-1-yl)pyridin-2-yl)-3,9-diazaspiro[5.5]undecan-3-yl)-2-oxoethyl)-6,7-dihydropyrrolo[3,4-f]isoindole-1,3(2H,5H)-dione], the DC50 was greater than 100 nM. For `O=C1CCC(N2C(=O)c3cc4c(cc3C2=O)CN(CC(=O)N2CCC3(CC2)CCN(c2ccc([C@@H]5c6ccc(O)cc6CC[C@@H]5c5ccc(F)cc5)cc2)C3)C4)C(=O)N1` (stereo partly drawn) [Compound B55, 2-(2,6-dioxopiperidin-3-yl)-6-(2-(2-(4-((1R,2S)-2-(4-fluorophenyl)-6-hydroxy-1,2,3,4-tetrahydronaphthalen-1-yl)phenyl)-2,8-diazaspiro[4.5]decan-8-yl)-2-oxoethyl)-6,7-dihydropyrrolo[3,4-f]isoindole-1,3(2H,5H)-dione], the DC50 lay within 10 to 100 nM. The result for `O=C1CCC(N2C(=O)c3cc4c(cc3C2=O)CN(CC(=O)N2CCC(n3cc(-c5ccc([C@@H]6c7ccc(O)cc7CC[C@@H]6c6ccccc6)cc5)cn3)CC2)C4)C(=O)N1` (stereo partly drawn) [Compound B58, 2-(2,6-dioxopiperidin-3-yl)-6-(2-(4-(4-(4-((1R,2S)-6-hydroxy-2-phenyl-1,2,3,4-tetrahydronaphthalen-1-yl)phenyl)-1H-pyrazol-1-yl)piperidin-1-yl)-2-oxoethyl)-6,7-dihydropyrrolo[3,4-f]isoindole-1,3(2H,5H)-dione] reads greater than 100 nM. Take `O=C1CCC(N2C(=O)c3cc4c(cc3C2=O)CN(CC(=O)N2CC(n3cc(-c5ccc([C@@H]6c7ccc(O)cc7CC[C@@H]6c6ccccc6)cc5)cn3)C2)C4)C(=O)N1` (stereo partly drawn) [Compound B59, 2-(2,6-dioxopiperidin-3-yl)-6-(2-(3-(4-(4-((1R,2S)-6-hydroxy-2-phenyl-1,2,3,4-tetrahydronaphthalen-1-yl)phenyl)-1H-pyrazol-1-yl)azetidin-1-yl)-2-oxoethyl)-6,7-dihydropyrrolo[3,4-f]isoindole-1,3(2H,5H)-dione]: the DC50 is greater than 100 nM.

For the compound `O=C1CCC(N2C(=O)c3cc4c(cc3C2=O)CN(CC(=O)N2CCC(Oc3ccc([C@@H]5c6ccc(O)cc6CC[C@@H]5c5ccccc5)cc3)CC2)C4)C(=O)N1` (stereo partly drawn) [Compound B60, 2-(2,6-dioxopiperidin-3-yl)-6-(2-(4-(4-((1R,2S)-6-hydroxy-2-phenyl-1,2,3,4-tetrahydronaphthalen-1-yl)phenoxy)piperidin-1-yl)-2-oxoethyl)-6,7-dihydropyrrolo[3,4-f]isoindole-1,3(2H,5H)-dione], the DC50 is greater than 100 nM.
